Experimental findings from ChEMBL document CHEMBL1201862, “PubChem BioAssay data set” (2004) are described below.

Molecules are shown by their SMILES.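 Five concentrations, 48 hours, 96-well plates. GI50 is the concentration that inhibits growth by half.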 Calls of active or inactive are those of the source. Rule as the data show it: active = GI50 up to about 1.1 µM and inactive = higher. Bounds are passed on as bounds.

Some test systems named below: SF-539; MDA-MB-435; SNB-19; HOP-62; SK-MEL-28; COLO 205; HCT-116; OVCAR-4; NCI-H522; CAKI-1; NCI-H460; SF-268; SN12C; EKVX; UO-31; SR; MDA-MB-231; OVCAR-8; MCF7; RXF 393.
What all share (experiment): growth of human tumour cells (NCI), 48 h

`O=C1/C(=C/c2ccc(O)cc2)CCc2ccc([N+](=O)[O-])cc21`: the GI50 in the experiment on SF-539 is > 90.6 µM (inactive); in the experiment on MDA-MB-435, > 100 µM (inactive); in the experiment on SNB-19, 39.1 µM (inactive); with HOP-62 it was 73.5 µM (inactive); in the experiment with SK-MEL-28 it was > 100 µM (inactive); in the experiment on COLO 205, > 100 µM (inactive). Moreover, the GI50 in the experiment on HCT-116 was 75.5 µM (inactive); in the experiment on OVCAR-4, > 90.6 µM (inactive); in the experiment with NCI-H522, 2.65 µM (inactive); with CAKI-1, > 82.6 µM (inactive); in the experiment with NCI-H460 it was 45.9 µM (inactive); with SF-268, > 61.7 µM (inactive). The GI50 was > 100 µM (inactive) with SN12C; > 89.5 µM (inactive) in the experiment with EKVX; 23 µM (inactive) with UO-31; 1.63 µM (inactive) with SR; > 100 µM (inactive) with MDA-MB-231; > 100 µM (inactive) in the experiment with OVCAR-8. Moreover, the GI50 is > 33.3 µM (inactive) with MCF7 and 33.3 µM (inactive) in the experiment with RXF 393.

For the compound `C=C1C(=O)OC2/C=C(\COC(C)=O)CCC(OC(C)=O)C3=CC(OC3=O)C12` (stereo not given), the GI50 in the experiment on SF-539 was 6.64 µM (inactive); in the experiment on MDA-MB-435 it was 10.6 µM (inactive); in the experiment with SNB-19, 18 µM (inactive); in the experiment with HOP-62, 19.8 µM (inactive); in the experiment with SK-MEL-28, 3.99 µM (inactive); in the experiment with COLO 205, 2.14 µM (inactive). For the same compound, the GI50 in the experiment with HCT-116 is 2.48 µM (inactive); with OVCAR-4 it was 23.3 µM (inactive); with NCI-H522, 0.526 µM (active); in the experiment with CAKI-1, 3.03 µM (inactive); in the experiment on NCI-H460 it was 19.5 µM (inactive); in the experiment with SF-268 it was 22.3 µM (inactive). The GI50 in the experiment with SN12C is 8.87 µM (inactive); in the experiment on EKVX, 11.7 µM (inactive); in the experiment on UO-31, 17.3 µM (inactive); in the experiment with SR it was 2.3 µM (inactive); in the experiment on MDA-MB-231 it was 19.1 µM (inactive); in the experiment on OVCAR-8 it was 3.31 µM (inactive). Further, the values for the GI50 with MCF7 and with RXF 393 were 3.69 µM (inactive) and 1.59 µM (inactive), respectively.

For the compound `Cc1ccccc1NC(=O)CC(=O)NNC(Sc1ccccc1)c1cc(/N=N/c2ccc(Br)cc2)ccc1O` (stereo not given), the GI50 in the experiment with SF-539 was 1.37 µM (inactive); in the experiment on MDA-MB-435, 3.65 µM (inactive); in the experiment on SNB-19 it was 9.48 µM (inactive); in the experiment with HOP-62, 2.17 µM (inactive); in the experiment with SK-MEL-28, 6.52 µM (inactive); in the experiment with COLO 205, 3.1 µM (inactive). Moreover, the GI50 is 0.308 µM (active) with HCT-116; 2.09 µM (inactive) in the experiment with OVCAR-4; 6.01 µM (inactive) in the experiment with NCI-H522; 2.53 µM (inactive) with CAKI-1; 0.658 µM (active) in the experiment on NCI-H460; 0.733 µM (active) in the experiment with SF-268. For the same compound, the GI50 was 2.49 µM (inactive) in the experiment with SN12C; 5.02 µM (inactive) in the experiment on EKVX; 2.68 µM (inactive) in the experiment with UO-31; 0.37 µM (active) in the experiment with SR; 1.14 µM (inactive) with MDA-MB-231; 0.552 µM (active) in the experiment on OVCAR-8. Moreover, the GI50 with MCF7 was 0.798 µM (active); in the experiment with RXF 393 it was 2.13 µM (inactive).

Regarding `CC1=C(C(=O)Nc2ccccc2)C(c2ccc(C3C(C(=O)Nc4ccccc4)=C(C)NC(C)=C3C(=O)Nc3ccccc3)cc2)C(C(=O)Nc2ccccc2)=C(C)N1`, the GI50 was 3.56 µM (inactive) in the experiment on SF-539; 1.86 µM (inactive) with MDA-MB-435; 6.31 µM (inactive) in the experiment on SNB-19; 3.68 µM (inactive) in the experiment with HOP-62; 1.79 µM (inactive) in the experiment on SK-MEL-28; 3.21 µM (inactive) in the experiment with COLO 205. For the same compound, the GI50 was 2 µM (inactive) in the experiment on HCT-116; 6.03 µM (inactive) with OVCAR-4; 1.54 µM (inactive) with NCI-H522; 4.02 µM (inactive) in the experiment on CAKI-1; 2.67 µM (inactive) in the experiment with NCI-H460; 2.2 µM (inactive) in the experiment with SF-268. Also, the GI50 in the experiment with SN12C was 2.04 µM (inactive); in the experiment on EKVX, 4.72 µM (inactive); in the experiment with UO-31 it was 9.27 µM (inactive); with SR, 2.03 µM (inactive); in the experiment with MDA-MB-231, 2.8 µM (inactive); with OVCAR-8, 3.03 µM (inactive). Besides, the GI50 with MCF7 is 2.86 µM (inactive); in the experiment on RXF 393, 1.91 µM (inactive).

As to `CCCCCCOc1ccc(NC2=C(Cl)C(=O)c3c(O)ccc(O)c3C2=O)cc1`, the GI50 in the experiment with SF-539 is 2.4 µM (inactive); in the experiment with MDA-MB-435, 1.72 µM (inactive); in the experiment with SNB-19, 3.15 µM (inactive); in the experiment on HOP-62, 1.77 µM (inactive); with SK-MEL-28, 2 µM (inactive); in the experiment with COLO 205, 1.78 µM (inactive). Besides, the GI50 in the experiment with HCT-116 was 1.6 µM (inactive); with OVCAR-4, 4.14 µM (inactive); in the experiment with NCI-H522 it was 2.15 µM (inactive); with CAKI-1 it was 5.28 µM (inactive); in the experiment on NCI-H460, 1.01 µM (active); with SF-268, 6.22 µM (inactive). Besides, the GI50 with SN12C was 1.86 µM (inactive); with EKVX, > 10 µM (inactive); in the experiment on UO-31 it was 2.2 µM (inactive); in the experiment on SR, 1.94 µM (inactive); with MDA-MB-231, 1.86 µM (inactive); in the experiment on OVCAR-8, 2.09 µM (inactive). Further, the GI50 is 0.414 µM (active) in the experiment on MCF7 and 2.32 µM (inactive) with RXF 393.

With `O=C1c2c(Br)sc(Br)c2[C@@H](O)[C@H]1O`, the GI50 was 15.9 µM (inactive) in the experiment with SF-539; 10.7 µM (inactive) with MDA-MB-435; 19.5 µM (inactive) with SNB-19; 16.9 µM (inactive) with HOP-62; 19.5 µM (inactive) in the experiment with SK-MEL-28; 14.3 µM (inactive) with COLO 205. In addition, the GI50 in the experiment on HCT-116 was 16.8 µM (inactive); with OVCAR-4, 14.1 µM (inactive); in the experiment on NCI-H522 it was 1.82 µM (inactive); in the experiment on CAKI-1, 18.4 µM (inactive); with NCI-H460 it was 17.2 µM (inactive); with SF-268, 10.8 µM (inactive). The GI50 was 16.3 µM (inactive) in the experiment on SN12C; 16.7 µM (inactive) in the experiment on EKVX; 17.1 µM (inactive) in the experiment with UO-31; 1.96 µM (inactive) with SR; 16.6 µM (inactive) in the experiment with MDA-MB-231; 14.1 µM (inactive) in the experiment with OVCAR-8. In addition, the GI50 is 17.1 µM (inactive) in the experiment on MCF7 and 16.2 µM (inactive) in the experiment on RXF 393.

In the case of `COc1cc(S(=O)(=O)Nc2nc(-c3ccc(N)cc3)cs2)ccc1Cl`, the GI50 in the experiment with SF-539 is > 100 µM (inactive); in the experiment with MDA-MB-435 it was 83.6 µM (inactive); in the experiment with SNB-19, 91.4 µM (inactive); in the experiment on HOP-62, > 100 µM (inactive); in the experiment on SK-MEL-28, 69.3 µM (inactive); in the experiment with COLO 205, 32.1 µM (inactive). For the same compound, the GI50 was 65.2 µM (inactive) in the experiment on HCT-116; 34 µM (inactive) in the experiment on OVCAR-4; 56 µM (inactive) in the experiment with NCI-H522; 73.5 µM (inactive) in the experiment on CAKI-1; 84.9 µM (inactive) in the experiment with NCI-H460; 75.7 µM (inactive) in the experiment on SF-268. The GI50 with SN12C is 34.4 µM (inactive); with EKVX, 42.7 µM (inactive); with UO-31, 85.7 µM (inactive); in the experiment with SR it was 61 µM (inactive); with MDA-MB-231 it was > 100 µM (inactive); with OVCAR-8, 64.7 µM (inactive). Besides, the GI50 with MCF7 is 36.8 µM (inactive); with RXF 393 it was 38.1 µM (inactive).

Turning to `CC(C)(O)CCC(O)C(C)(O)C1CCC2(O)C3=CC(=O)C4(O)CC(O)C(O)CC4(C)C3CCC12C.CC(C)(O)CCC(O)C(C)(O)C1CCC2(O)C3=CC(=O)C4CC(O)C(O)CC4(C)C3CCC12C` (stereo not given), the GI50 in the experiment with SF-539, with MDA-MB-435, in the experiment on SNB-19, with HOP-62, in the experiment with SK-MEL-28 and in the experiment on COLO 205 was > 100 µM (inactive) each time. Moreover, the GI50 in the experiment on HCT-116, in the experiment with OVCAR-4, with NCI-H522, with CAKI-1, with NCI-H460 and with SF-268 was > 100 µM (inactive) throughout. For the same compound, the GI50 with SN12C, with EKVX, in the experiment on UO-31, in the experiment with SR, with MDA-MB-231 and with OVCAR-8 was > 100 µM (inactive) in each case. For the same compound, the figures for the GI50 with MCF7 and in the experiment with RXF 393 were 86.7 µM (inactive) and > 100 µM (inactive), respectively.

Turning to `COc1ccc(NC(=O)CC(=O)n2nc(C)c(/N=N/c3ccc(C)c(C)c3)c2C)cc1`, the GI50 is 26.5 µM (inactive) with SF-539; > 100 µM (inactive) in the experiment with MDA-MB-435; 58.3 µM (inactive) in the experiment on SNB-19; 22.9 µM (inactive) with HOP-62; > 100 µM (inactive) in the experiment on SK-MEL-28; > 100 µM (inactive) in the experiment with COLO 205. For the same compound, the GI50 is > 100 µM (inactive) in the experiment on HCT-116; > 100 µM (inactive) with OVCAR-4; > 100 µM (inactive) in the experiment on NCI-H522; > 100 µM (inactive) in the experiment on CAKI-1; > 100 µM (inactive) with NCI-H460; 33.8 µM (inactive) in the experiment with SF-268. Besides, the GI50 with SN12C is > 100 µM (inactive); with EKVX, 15.1 µM (inactive); in the experiment with UO-31 it was 24.5 µM (inactive); with SR it was 43.3 µM (inactive); in the experiment on MDA-MB-231 it was > 100 µM (inactive); in the experiment with OVCAR-8, 29.7 µM (inactive). Besides, the GI50 was > 100 µM (inactive) with MCF7 and 32.4 µM (inactive) with RXF 393.

With `COc1cc(/C=C(\C#N)C(N)=C(C#N)C#N)cc(O)c1O`, the GI50 is > 100 µM (inactive) with SF-539; 59.3 µM (inactive) in the experiment with MDA-MB-435; > 87.5 µM (inactive) in the experiment with SNB-19; > 71.6 µM (inactive) in the experiment with HOP-62; > 100 µM (inactive) with SK-MEL-28; > 100 µM (inactive) in the experiment with COLO 205. Besides, the GI50 with HCT-116 was > 70.5 µM (inactive); in the experiment on OVCAR-4 it was > 100 µM (inactive); in the experiment with NCI-H522 it was 36 µM (inactive); in the experiment with CAKI-1, > 100 µM (inactive); in the experiment on NCI-H460, > 89.1 µM (inactive); in the experiment with SF-268, > 87.9 µM (inactive). Besides, the GI50 in the experiment on SN12C is > 36 µM (inactive); in the experiment with EKVX, > 89.7 µM (inactive); in the experiment with UO-31, > 77.8 µM (inactive); in the experiment with SR, 35.1 µM (inactive); in the experiment on MDA-MB-231, > 100 µM (inactive); in the experiment with OVCAR-8, 91.2 µM (inactive). In addition, the figures for the GI50 with MCF7 and in the experiment with RXF 393 were 95.3 µM (inactive) and > 100 µM (inactive), respectively.
